Measurements: US11986532B2 (Arvinas Operations, Inc., priority 2021, dated 2024)
Where two headings read alike, the source gives them in different places.

Target: T1, BCL6 (Homo sapiens, UniProt P41182)
T1 construct: endogenous in cells; host or cells: T47D breast cancer epithelial cells
Experiment: Immunofluorescence protocol for high content imaging of BCL6 (degradation) in T47D cells, 3 days compound treatment
Type: cell-based
Conditions: for Dmax: read-out: Mean Dmax (%)** category; for DC50: read-out: Mean DC50 (nM)* category
In short: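 Remaining BCL6 in breast cancer T47D cells was measured by high-content immunofluorescence imaging after 3 days of treatment with serially diluted compound (top 0.1 or 1 μM). Nuclei were stained with Hoechst and cells with CellMask.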

[1] = T47D cells, 3 days compound treatment

DC50 [1] | Dmax [1] | SMILES | Dmax (T47D) | DC50 | Mean Dmax (%)** category
– | – | CNC(=O)COc1cc2cc(Nc3nc(N4CCC(O[C@H]5C[C@H](N6CCN(c7c(OC)cc8c(c7C)C(=O)N(C7CCC(=O)NC7=O)C8=O)CC6)C5)CC4)ncc3Cl)ccc2n(C(C)C)c1=O (some centres unmarked) [Compound 266, 2-({6-[(5-chloro-2-{4-[(1r,3r)-3-{4-[2-(2,6-dioxopiperidin-3-yl)-6-methoxy-4-methyl-1,3-dioxo-2,3-dihydro-1H-isoindol-5-yl]piperazin-1-yl}cyclobutoxy]piperidin-1-yl}pyrimidin-4-yl)amino]-2-oxo-1-(propan-2-yl)-1,2-dihydroquinolin-3-yl}oxy)-N-methylacetamide] | ≥ 70% | < 10 nM | –
– | – | CNC(=O)COc1cc2cc(Nc3nc(N4CCC(O[C@H]5C[C@H](N6CCC(F)(c7ccc8c(c7)C(=O)N(C7CCC(=O)NC7=O)C8=O)CC6)C5)CC4)ncc3Cl)ccc2n(C(C)C)c1=O (some centres unmarked) [Compound 276, 2-({6-[(5-chloro-2-{4-[(1r,3r)-3-{4-[2-(2,6-dioxopiperidin-3-yl)-1,3-dioxoisoindol-5-yl]-4-fluoropiperidin-1-yl}cyclobutoxy]piperidin-1-yl}pyrimidin-4-yl)amino]-1-isopropyl-2-oxoquinolin-3-yl}oxy)-N-methylacetamide] | 50 to 70% | 10 to 50 nM | –
– | – | CNC(=O)COc1cc2cc(Nc3nc(N4CCC(CN5CCC6(CC5)CN(c5cccc7c5C(=O)N(C5CCC(=O)NC5=O)C7=O)C6(C)C)CC4)ncc3Cl)ccc2n(C(C)C)c1=O (centres unmarked) [Compound 337, 2-{[6-({5-chloro-2-[4-({2-[2-(2,6-dioxopiperidin-3-yl)-1,3-dioxo-2,3-dihydro-1H-isoindol-4-yl]-1,1-dimethyl-2,7-diazaspiro[3.5]nonan-7-yl}methyl)piperidin-1-yl]pyrimidin-4-yl}amino)-2-oxo-1-(propan-2-yl)-1,2-dihydroquinolin-3-yl]oxy}-N-methylacetamide] | 50 to 70% | < 10 nM | –
– | – | CNC(=O)COc1cc2cc(Nc3nc(N4CCC(CN5CCC6(CN(c7ccc8c(c7OC)CN(C7CCC(=O)NC7=O)C8=O)C6)C(F)(F)C5)CC4)ncc3Cl)ccc2n(C(C)C)c1=O (centres unmarked) [Compound 352, 2-{[6-({5-chloro-2-[4-({2-[2-(2,6-dioxopiperidin-3-yl)-4-methoxy-1-oxo-2,3-dihydro-1H-isoindol-5-yl]-5,5-difluoro-2,7-diazaspiro [3.5]nonan-7-yl}methyl)piperidin-1-yl]pyrimidin-4-yl}amino)-2-oxo-1-(propan-2-yl)-1,2-dihydroquinolin-3-yl]oxy}-N-methylacetamide] | < 50% | 10 to 50 nM | –
– | – | CNC(=O)COc1cc2cc(Nc3nc(N4CCC(O[C@H]5C[C@H](N6CC7CCC(C6)N7c6ccc7c(c6)C(=O)N(C6CCC(=O)NC6=O)C7=O)C5)CC4)ncc3Cl)ccc2n(C(C)C)c1=O (some centres unmarked) [Compound 370, 2-({6-[(5-chloro-2-{4-[(1r,3r)-3-{8-[2-(2,6-dioxopiperidin-3-yl)-1,3-dioxo-2,3-dihydro-1H-isoindol-5-yl]-3,8-diazabicyclo[3.2.1]octan-3-yl}cyclobutoxy]piperidin-1-yl}pyrimidin-4-yl)amino]-2-oxo-1-(propan-2-yl)-1,2-dihydroquinolin-3-yl}oxy)-N-methylacetamide] | < 50% | 10 to 50 nM | –
< 10 nM | < 50% | CNC(=O)COc1cc2cc(Nc3nc(N4CCC(CN5CCC6(CN(c7ccc8c(c7)C(=O)N(C7CCC(=O)NC7=O)C8=O)C6)C(F)(F)C5)CC4)ncc3Cl)ccc2n(CCOC)c1=O (centres unmarked) [Compound 126, 2-{[6-({5-chloro-2-[4-({2-[2-(2,6-dioxopiperidin-3-yl)-1,3-dioxo-2,3-dihydro-1H-isoindol-5-yl]-5,5-difluoro-2,7-diazaspiro[3.5]nonan-7-yl}methyl)piperidin-1-yl]pyrimidin-4-yl}amino)-1-(2-methoxyethyl)-2-oxo-1,2-dihydroquinolin-3-yl]oxy}-N-methylacetamide] | – | – | –
– | – | CNC(=O)COc1cc2cc(Nc3nc(N4CCC(O[C@H]5C[C@H](N6C[C@@H](C)N(c7ccc8c(c7)C(=O)N(C7CCC(=O)NC7=O)C8=O)[C@@H](C)C6)C5)CC4)ncc3Cl)ccc2n(C(C)C)c1=O (stereo partly drawn) [Compound 244, 2-({6-[(5-chloro-2-{4-[(1r,3r)-3-[(3R,5S)-4-[2-(2,6-dioxopiperidin-3-yl)-1,3-dioxo-2,3-dihydro-1H-isoindol-5-yl]-3,5-dimethylpiperazin-1-yl]cyclobutoxy]piperidin-1-yl}pyrimidin-4-yl)amino]-2-oxo-1-(propan-2-yl)-1,2-dihydroquinolin-3-yl}oxy)-N-methylacetamide] | – | 10 to 50 nM | A (A >= 70)
– | – | CNC(=O)COc1cc2cc(Nc3nc(N4CCC(O[C@H]5C[C@H](N6CCC7(CCCN(c8ccc9c(c8)C(=O)N(C8CCC(=O)NC8=O)C9=O)C7)C6)C5)CC4)ncc3Cl)ccc2n(C(C)C)c1=O (some centres unmarked) [Compound 359, 2-({6-[(5-chloro-2-{4-[(1r,3r)-3-{7-[2-(2,6-dioxopiperidin-3-yl)-1,3-dioxo-2,3-dihydro-1H-isoindol-5-yl]-2,7-diazaspiro [4.5]decan-2-yl}cyclobutoxy]piperidin-1-yl}pyrimidin-4-yl)amino]-2-oxo-1-(propan-2-yl)-1,2-dihydroquinolin-3-yl}oxy)-N-methylacetamide] | 50 to 70% | 10 to 50 nM | –
< 10 nM | 50 to 70% | CNC(=O)COc1cc2cc(Nc3nc(N4CCC(O[C@H]5C[C@H](N6CC[C@H](c7ccc8c(c7)C(=O)N(C7CCC(=O)NC7=O)C8)[C@H](F)C6)C5)CC4)ncc3Cl)ccc2n(C(C)C)c1=O (mixture of isomers) [Compound 132] | – | – | –
< 10 nM | 50 to 70% | CNC(=O)COc1cc2cc(Nc3nc(N4CCC(CN5CCC6(CC5)CN(c5ccc7c(c5)C(=O)N(C5CCC(=O)NC5=O)C7=O)C6)CC4)ncc3Cl)cc(F)c2n(C(C)C)c1=O (centres unmarked) [Compound 111, 2-{[6-({5-chloro-2-[4-({2-[2-(2,6-dioxopiperidin-3-yl)-1,3-dioxo-2,3-dihydro-1H-isoindol-5-yl]-2,7-diazaspiro[3.5]nonan-7-yl}methyl)piperidin-1-yl]pyrimidin-4-yl}amino)-8-fluoro-2-oxo-1-(propan-2-yl)-1,2-dihydroquinolin-3-yl]oxy}-N-methylacetamide] | – | – | –
< 10 nM | 50 to 70% | CNC(=O)COc1cc2cc(Nc3nc(N4CCC(CN5CCC6(CCN(c7cc(F)cc8c7C(=O)N(C7CCC(=O)NC7=O)C8=O)C6)C5)CC4)ncc3Cl)ccc2n(C(C)C)c1=O (centres unmarked) [Compound 138, 2-{[6-({5-chloro-2-[4-({7-[2-(2,6-dioxopiperidin-3-yl)-6-fluoro-1,3-dioxo-2,3-dihydro-1H-isoindol-4-yl]-2,7-diazaspiro[4.4]nonan-2-yl}methyl)piperidin-1-yl]pyrimidin-4-yl}amino)-2-oxo-1-(propan-2-yl)-1,2-dihydroquinolin-3-yl]oxy}-N-methylacetamide] | – | – | –
< 10 nM | 50 to 70% | CNC(=O)COc1cc2cc(Nc3nc(N4CCC(CN5CCC6(CN(c7cc8c(c(OC)c7)C(=O)N(C7CCC(=O)NC7=O)C8)C6)C(F)(F)C5)CC4)ncc3Cl)ccc2n(C(C)C)c1=O (centres unmarked) [Compound 101, 2-{[6-({5-chloro-2-[4-({2-[2-(2,6-dioxopiperidin-3-yl)-7-methoxy-1-oxo-2,3-dihydro-1H-isoindol-5-yl]-5,5-difluoro-2,7-diazaspiro[3.5]nonan-7-yl}methyl)piperidin-1-yl]pyrimidin-4-yl}amino)-2-oxo-1-(propan-2-yl)-1,2-dihydroquinolin-3-yl]oxy}-N-methylacetamide] | – | – | –
– | – | CNC(=O)COc1cc2cc(Nc3nc(N4CCC(CN5CCC6(CC5)CCN6c5cccc6c5CN(C5CCC(=O)NC5=O)C6=O)CC4)ncc3Cl)ccc2n(C(C)C)c1=O (centres unmarked) [Compound 334, 2-{[6-({5-chloro-2-[4-({1-[2-(2,6-dioxopiperidin-3-yl)-1-oxo-2,3-dihydro-1H-isoindol-4-yl]-1,7-diazaspiro[3.5]nonan-7-yl}methyl)piperidin-1-yl]pyrimidin-4-yl}amino)-2-oxo-1-(propan-2-yl)-1,2-dihydroquinolin-3-yl]oxy}-N-methylacetamide] | 50 to 70% | < 10 nM | –
< 10 nM | 50 to 70% | CNC(=O)COc1cc2cc(Nc3nc(N4CCC(F)(CN5CC(N6CCC(c7ccc8c(c7)C(=O)N(C7CCC(=O)NC7=O)C8=O)CC6)C5)CC4)ncc3Cl)ccc2n(C(C)C)c1=O (centres unmarked) [Compound 97, 2-({6-[(5-chloro-2-{4-[(3-{4-[2-(2,6-dioxopiperidin-3-yl)-1,3-dioxo-2,3-dihydro-1H-isoindol-5-yl]piperidin-1-yl}azetidin-1-yl)methyl]-4-fluoropiperidin-1-yl}pyrimidin-4-yl)amino]-2-oxo-1-(propan-2-yl)-1,2-dihydroquinolin-3-yl}oxy)-N-methylacetamide] | – | – | –
10 to 50 nM | 50 to 70% | CNC(=O)COc1cc2cc(Nc3nc(N4CCC(OC5CCC(N6CCC(c7ccc8c(c7)C(=O)N(C7CCC(=O)NC7=O)C8=O)CC6)C5)CC4)ncc3Cl)ccc2n(C(C)C)c1=O (centres unmarked) [Compound 42, 2-({6-[(5-chloro-2-{4-[(3-{4-[2-(2,6-dioxopiperidin-3-yl)-1,3-dioxo-2,3-dihydro-1H-isoindol-5-yl]piperidin-1-yl}cyclopentyl)oxy]piperidin-1-yl}pyrimidin-4-yl)amino]-2-oxo-1-(propan-2-yl)-1,2-dihydroquinolin-3-yl}oxy)-N-methylacetamide] | – | – | –

SMILES | DC50 [1] | Dmax [1] | Dmax (T47D) | DC50 | Mean Dmax (%)** category
CNC(=O)COc1cc2cc(Nc3nc(N4CCC(O[C@H]5C[C@H](N6CCC(c7cc(F)c8c(c7)CN(C7CCC(=O)NC7=O)C8=O)CC6)C5)CC4)ncc3Cl)ccc2n(C(C)C)c1=O (some centres unmarked) [Compound 92, 2-({6-[(5-chloro-2-{4-[(1r,3r)-3-{4-[2-(2,6-dioxopiperidin-3-yl)-7-fluoro-1-oxo-2,3-dihydro-1H-isoindol-5-yl]piperidin-1-yl}cyclobutoxy]piperidin-1-yl}pyrimidin-4-yl)amino]-2-oxo-1-(propan-2-yl)-1,2-dihydroquinolin-3-yl}oxy)-N-methylacetamide] | < 10 nM | ≥ 70% | – | – | –
